Some test systems named below: CCRF-CEM leukemia; DU-145 prostate; HCT-116 colon; HOP-62 NSCLC; IGROV1 ovarian; K-562 leukemia; KM12 colon; M14 melanoma; MALME-3M melanoma; MDA-N; NCI-H226 lung; OVCAR-5 ovarian; PC-3 prostate; SF-539 CNS; SK-MEL-2 melanoma; SK-MEL-5 melanoma; SK-OV-3 ovarian; UACC-257 melanoma; CAKI-1 renal.
Experiment in all cases: inhibition of tumour cell growth, NCI panel, 48 h

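Protocol summary: plate cells (96-well), add compound at 5 concentrations, incubate 48 h, interpolate endpoints linearly. The concentration for full growth arrest is given as TGI.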

`c1ccc2c(c1)ncn2C1CCCCO1` (stereo not given): the TGI in the assay on CCRF-CEM leukemia, in the assay with DU-145 prostate, with HCT-116 colon, in the assay on HOP-62 NSCLC, in the assay with IGROV1 ovarian and in the assay with K-562 leukemia was greater than 100 µM each time. Moreover, the TGI with KM12 colon, in the assay on M14 melanoma, in the assay with MALME-3M melanoma, in the assay with MDA-N, with NCI-H226 lung and in the assay with OVCAR-5 ovarian was greater than 100 µM in each case. The TGI in the assay with PC-3 prostate, in the assay on SF-539 CNS, in the assay on SK-MEL-2 melanoma, in the assay with SK-MEL-5 melanoma, with SK-OV-3 ovarian and in the assay on UACC-257 melanoma was greater than 100 µM each time.

In the case of `CCOC(=O)c1c(N2CCCC2)[nH]c(=O)c(C(c2ccco2)c2c(O)c(C(=O)OCC)c(N3CCCC3)[nH]c2=O)c1O`, the TGI with CAKI-1 renal, with CCRF-CEM leukemia, in the assay with DU-145 prostate, with HCT-116 colon, in the assay on HOP-62 NSCLC and in the assay on K-562 leukemia was greater than 100 µM each time. In addition, the TGI with KM12 colon, in the assay with M14 melanoma, with MALME-3M melanoma, in the assay with MDA-N, with NCI-H226 lung and with OVCAR-5 ovarian was greater than 100 µM throughout. Also, the TGI in the assay on PC-3 prostate, in the assay with SF-539 CNS, in the assay with SK-MEL-2 melanoma, in the assay on SK-MEL-5 melanoma, in the assay on SK-OV-3 ovarian and in the assay with UACC-257 melanoma was greater than 100 µM in each case.

Turning to `COC1(OC)CC(CO)(CNc2cc(Cl)nc(N)n2)C1`, the TGI with CAKI-1 renal, in the assay on CCRF-CEM leukemia, in the assay on DU-145 prostate, in the assay with HCT-116 colon, in the assay with HOP-62 NSCLC and in the assay on IGROV1 ovarian was greater than 100 µM in each case. Besides, the TGI in the assay with K-562 leukemia, with KM12 colon, with MALME-3M melanoma, in the assay with MDA-N, in the assay on NCI-H226 lung and in the assay with OVCAR-5 ovarian was greater than 100 µM in each case. Further, the TGI in the assay with PC-3 prostate, with SF-539 CNS, in the assay with SK-MEL-2 melanoma, in the assay on SK-MEL-5 melanoma, with SK-OV-3 ovarian and with UACC-257 melanoma was greater than 100 µM each time.

`O=C1CCCC/C1=C\c1ccc(Br)cc1`: the TGI in the assay on CAKI-1 renal is 32.1 µM; with CCRF-CEM leukemia it was 94.4 µM; with DU-145 prostate it was greater than 100 µM; with HCT-116 colon, 31.6 µM; in the assay with HOP-62 NSCLC, 42.8 µM; in the assay on IGROV1 ovarian it was 38.3 µM. Further, the TGI in the assay with K-562 leukemia is 31.7 µM; with KM12 colon it was 5.83 µM; in the assay with M14 melanoma, 26.1 µM; in the assay with MALME-3M melanoma it was 21.5 µM; in the assay with MDA-N, 38.3 µM; with PC-3 prostate it was greater than 100 µM. In addition, the TGI was determined as 37.1 µM in the assay on SF-539 CNS; 46.4 µM in the assay with SK-MEL-2 melanoma; 44.5 µM in the assay with SK-MEL-5 melanoma; 44.5 µM in the assay with SK-OV-3 ovarian; 70.3 µM in the assay on UACC-257 melanoma.

On to `CC1(CCCO)CCCCCCCCCC(C)(CCCO)C1=O` (stereo not given), for which the TGI in the assay with CAKI-1 renal, in the assay with CCRF-CEM leukemia, with DU-145 prostate, in the assay with HCT-116 colon, with HOP-62 NSCLC and with IGROV1 ovarian was greater than 100 µM throughout. Besides, the TGI in the assay on K-562 leukemia, in the assay with KM12 colon, in the assay on M14 melanoma, in the assay with MALME-3M melanoma, in the assay with MDA-N and in the assay on NCI-H226 lung was greater than 100 µM each time. The TGI in the assay with OVCAR-5 ovarian, in the assay with PC-3 prostate, in the assay on SK-MEL-2 melanoma, in the assay with SK-MEL-5 melanoma, in the assay with SK-OV-3 ovarian and in the assay with UACC-257 melanoma was greater than 100 µM in each case.

Regarding `CCN1CCN(c2nc3ccc([N+](=O)[O-])cc3nc2C(=O)c2ccccc2)CC1`, the TGI with CAKI-1 renal is 30.5 µM; in the assay with CCRF-CEM leukemia, 8.27 µM; in the assay with DU-145 prostate, 33.2 µM; with HCT-116 colon, 31.2 µM; with HOP-62 NSCLC it was 35.6 µM; in the assay on IGROV1 ovarian it was 18.9 µM. The TGI in the assay with K-562 leukemia was greater than 100 µM; in the assay on KM12 colon it was 31.8 µM; in the assay with M14 melanoma it was 25.7 µM; with MALME-3M melanoma, 28.2 µM; in the assay on MDA-N, 33.9 µM; in the assay on NCI-H226 lung it was 33.3 µM. Moreover, the TGI in the assay with OVCAR-5 ovarian amounted to 36.1 µM; in the assay on PC-3 prostate, 32.3 µM; in the assay on SF-539 CNS, 29.7 µM; with SK-MEL-2 melanoma it was 29.3 µM; in the assay with SK-OV-3 ovarian it was 41.7 µM; with UACC-257 melanoma it was 36.7 µM.

For the compound `Nc1[nH]c(=S)nc2snnc12`, the TGI with CAKI-1 renal, in the assay with CCRF-CEM leukemia, in the assay with DU-145 prostate, with HCT-116 colon, in the assay with HOP-62 NSCLC and in the assay with IGROV1 ovarian was greater than 100 µM throughout. Moreover, the TGI with K-562 leukemia, in the assay on KM12 colon, with MALME-3M melanoma, in the assay with MDA-N, in the assay with NCI-H226 lung and in the assay on OVCAR-5 ovarian was greater than 100 µM throughout. The TGI in the assay with PC-3 prostate, in the assay with SF-539 CNS, in the assay on SK-MEL-2 melanoma, in the assay with SK-MEL-5 melanoma, in the assay on SK-OV-3 ovarian and in the assay with UACC-257 melanoma was greater than 100 µM each time.

As to `Cc1ccc(-n2[nH]nc(C#N)c2=O)cc1`, the TGI with CAKI-1 renal, with CCRF-CEM leukemia, with DU-145 prostate, with HCT-116 colon, in the assay on HOP-62 NSCLC and with IGROV1 ovarian was greater than 100 µM throughout. Further, the TGI in the assay with K-562 leukemia, in the assay on KM12 colon, with M14 melanoma, with MALME-3M melanoma, with MDA-N and in the assay with NCI-H226 lung was greater than 100 µM in each case. The TGI with OVCAR-5 ovarian, in the assay with PC-3 prostate, with SK-MEL-2 melanoma, in the assay with SK-MEL-5 melanoma, in the assay with SK-OV-3 ovarian and in the assay on UACC-257 melanoma was greater than 100 µM throughout.

As to `Cn1/c(=N\S(=O)(=O)c2ccccc2)n(S(=O)(=O)c2ccccc2)c2ccccc21`, the TGI is greater than 100 µM in the assay with CAKI-1 renal; 83.3 µM with CCRF-CEM leukemia; greater than 100 µM in the assay with DU-145 prostate; greater than 100 µM in the assay on HCT-116 colon; greater than 100 µM in the assay on HOP-62 NSCLC; greater than 100 µM in the assay on IGROV1 ovarian. Also, the TGI with K-562 leukemia, in the assay with KM12 colon, in the assay on M14 melanoma, with MALME-3M melanoma, with MDA-N and with NCI-H226 lung was greater than 100 µM throughout. Besides, the TGI with OVCAR-5 ovarian, with PC-3 prostate, with SK-MEL-2 melanoma, in the assay on SK-MEL-5 melanoma, in the assay with SK-OV-3 ovarian and in the assay on UACC-257 melanoma was greater than 100 µM each time.

Turning to `CSc1c(C#N)c(N)nc2c(N=Nc3ccc(Cl)cc3)c(N)nn12`, the TGI in the assay on CAKI-1 renal was 34.5 µM; in the assay with CCRF-CEM leukemia it was 5.47 µM; in the assay with DU-145 prostate, 5.7 µM; in the assay on HOP-62 NSCLC, 28.6 µM; with IGROV1 ovarian it was 3.46 µM; in the assay on K-562 leukemia, 4.75 µM. The TGI in the assay with KM12 colon came out at 11.8 µM; in the assay with M14 melanoma it was 47.6 µM; in the assay on MALME-3M melanoma it was 16.4 µM; in the assay with MDA-N it was 23.4 µM; with NCI-H226 lung, 37.9 µM; in the assay on OVCAR-5 ovarian, 39.6 µM. Also, the TGI with PC-3 prostate turned out to be 7.38 µM; in the assay with SF-539 CNS it was 12.3 µM; in the assay with SK-MEL-2 melanoma, 8.82 µM; with SK-MEL-5 melanoma it was 35 µM; in the assay with SK-OV-3 ovarian it was 67.1 µM; with UACC-257 melanoma, 10.2 µM.

With `Cc1cc(NC[C@H](O)[C@H](O)[C@H](O)CO)c(Sc2cc(=O)[nH]c(=O)[nH]2)cc1C`, the TGI with CAKI-1 renal, with CCRF-CEM leukemia, in the assay on DU-145 prostate, in the assay on HCT-116 colon, in the assay with HOP-62 NSCLC and in the assay with IGROV1 ovarian was greater than 62.5 µM throughout. Besides, the TGI in the assay on K-562 leukemia, in the assay with KM12 colon, in the assay with M14 melanoma, with MALME-3M melanoma, in the assay with MDA-N and in the assay with NCI-H226 lung was greater than 62.5 µM throughout. Moreover, the TGI in the assay with OVCAR-5 ovarian, in the assay with PC-3 prostate, in the assay on SK-MEL-2 melanoma, in the assay with SK-MEL-5 melanoma, with SK-OV-3 ovarian and in the assay with UACC-257 melanoma was greater than 62.5 µM in each case.

`CC(C)[Si](OC1=CCC[C@H]2NC(=O)[C@@H](Cc3ccccc3)[C@@]12C)(C(C)C)C(C)C`: the TGI in the assay with CAKI-1 renal came out at 14.6 µM; in the assay with CCRF-CEM leukemia, 10.2 µM; in the assay on DU-145 prostate, 22.1 µM; in the assay with HCT-116 colon it was 14.1 µM; in the assay with HOP-62 NSCLC, 24.2 µM; in the assay with IGROV1 ovarian, 26.7 µM. Also, the TGI stood at 12.5 µM in the assay on K-562 leukemia; 14.4 µM with KM12 colon; 24.7 µM in the assay with M14 melanoma; 34.3 µM with MALME-3M melanoma; 14.2 µM with MDA-N; 21.3 µM in the assay on OVCAR-5 ovarian. The TGI with PC-3 prostate stood at 12.3 µM; in the assay on SF-539 CNS, 19.1 µM; in the assay on SK-MEL-2 melanoma, 29.7 µM; with SK-MEL-5 melanoma it was 9.58 µM; in the assay on SK-OV-3 ovarian, 18.9 µM; in the assay with UACC-257 melanoma, 16.3 µM.
